This note sets out measurements from ChEMBL document CHEMBL1201862, “PubChem BioAssay data set” (2004).

The structures appear in SMILES notation.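 Compound exposure: 48 hours, 5 concentrations, 96-well plates. The concentration for 50% growth inhibition is given as GI50.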 Active and inactive are the calls of the source. Rule as the data show it: active = GI50 up to about 1.1 µM and inactive = higher.

Some test systems named below: K562; SN12C; HCT-15; UACC-62; SK-OV-3; SNB-19; OVCAR-5; SF-539; UACC-257; M14; OVCAR-4; SF-268; ACHN; NCI-H23; NCI-H460; SR.
Common to all, as to assay: NCI-60 cell line screen, 48 h

As for `O=c1c2ccccc2c(=O)n2n1CC=CC2`, the GI50 in the experiment on K562 is > 100 µM (inactive); in the experiment with SN12C, > 100 µM (inactive); with HCT-15, above 100 µM; in the experiment with UACC-62, > 100 µM (inactive); in the experiment on SK-OV-3, > 100 µM (inactive); in the experiment on SNB-19 it was > 100 µM (inactive). In addition, the GI50 in the experiment with OVCAR-5, in the experiment with SF-539, in the experiment on UACC-257, in the experiment with M14, with OVCAR-4 and with SF-268 was > 100 µM (inactive) throughout. Also, the GI50 in the experiment with ACHN and in the experiment with NCI-H23 was > 100 µM (inactive) each time.
For `COc1cc(/C=C/c2cccnc2)cc(OC)c1OC`, the GI50 with K562 was > 100 µM (inactive); in the experiment with SN12C, > 100 µM (inactive); in the experiment on HCT-15, above 100 µM; in the experiment with UACC-62, 81.1 µM (inactive); with SNB-19, > 100 µM (inactive); with OVCAR-5 it was 58.9 µM (inactive). Also, the GI50 with SF-539, with UACC-257, with M14, in the experiment with NCI-H460, with OVCAR-4 and with SF-268 was > 100 µM (inactive) each time. Also, the GI50 in the experiment on ACHN and in the experiment on NCI-H23 was > 100 µM (inactive) each time.
As for `O=CC1=CCCN(CCc2c[nH]c3ccccc23)C1`, the GI50 with K562 was 23.6 µM (inactive); in the experiment with SN12C, 46.2 µM (inactive); with HCT-15, 21.7 µM; with UACC-62, 58.3 µM (inactive); in the experiment on SK-OV-3, 86.5 µM (inactive); in the experiment on SNB-19, 45.2 µM (inactive). In addition, the GI50 is 11.8 µM (inactive) in the experiment with SR; 71.3 µM (inactive) in the experiment with OVCAR-5; 54 µM (inactive) in the experiment on SF-539; 63.8 µM (inactive) in the experiment on UACC-257; 54.6 µM (inactive) in the experiment on NCI-H460; 68.2 µM (inactive) with SF-268. Also, the GI50 with ACHN is 70.6 µM (inactive); in the experiment on NCI-H23, 47.6 µM (inactive).
For the compound `Clc1cccc(C2SCc3nc4ccccc4n32)c1Cl` (centres undefined), the GI50 is 12.8 µM (inactive) in the experiment on K562; 16.1 µM (inactive) with SN12C; 17.4 µM in the experiment with HCT-15; 19.7 µM (inactive) with UACC-62; 20.1 µM (inactive) with SK-OV-3; 18 µM (inactive) with SNB-19. Besides, the GI50 with OVCAR-5 was 13.9 µM (inactive); with SF-539, 17.2 µM (inactive); with UACC-257, 15.2 µM (inactive); with M14, 16.6 µM (inactive); in the experiment on NCI-H460, 18.5 µM (inactive); in the experiment on OVCAR-4, 13.9 µM (inactive). In addition, the GI50 in the experiment on SF-268 was 21 µM (inactive); in the experiment with ACHN, 20.8 µM (inactive); with NCI-H23, 17.8 µM (inactive).
Take `Cc1ccccc1NC(=O)CC1C(=O)Nc2ccccc2[S+]1[O-]` (centres undefined): the GI50 is > 100 µM (inactive) in the experiment on K562; 74 µM (inactive) with SN12C; above 100 µM in the experiment with HCT-15; > 100 µM (inactive) in the experiment with UACC-62; > 100 µM (inactive) in the experiment with SNB-19; > 100 µM (inactive) in the experiment on SR. For the same compound, the GI50 was > 100 µM (inactive) with OVCAR-5; 36.1 µM (inactive) in the experiment on SF-539; > 100 µM (inactive) in the experiment with UACC-257; > 100 µM (inactive) with M14; > 100 µM (inactive) in the experiment with NCI-H460; 71.6 µM (inactive) in the experiment on OVCAR-4. The figures for the GI50 in the experiment on SF-268, in the experiment on ACHN and in the experiment on NCI-H23 were > 100 µM (inactive), 95.3 µM (inactive) and > 100 µM (inactive), respectively.
Turning to `O=C1CCNC(=O)NC1`, the GI50 in the experiment with K562 is > 100 µM (inactive); in the experiment with SN12C, > 100 µM (inactive); in the experiment on HCT-15, above 100 µM; in the experiment on UACC-62, > 100 µM (inactive); in the experiment on SK-OV-3 it was > 100 µM (inactive); in the experiment with SNB-19 it was > 100 µM (inactive). The GI50 in the experiment with SR, in the experiment on OVCAR-5, with UACC-257, with M14, in the experiment with NCI-H460 and in the experiment with OVCAR-4 was > 100 µM (inactive) each time. For the same compound, the GI50 with SF-268 and in the experiment on ACHN was > 100 µM (inactive) each time.
For the compound `O=C(Cc1nc2ccccc2s1)C(=O)Nc1ccccc1C(F)(F)F`, the GI50 in the experiment with K562 is > 100 µM (inactive); in the experiment with SN12C, > 100 µM (inactive); in the experiment with HCT-15, above 100 µM; in the experiment on UACC-62 it was > 100 µM (inactive); in the experiment with SK-OV-3, > 100 µM (inactive); in the experiment with SNB-19, > 100 µM (inactive). For the same compound, the GI50 with OVCAR-5, in the experiment on SF-539, with UACC-257, in the experiment on M14, in the experiment on NCI-H460 and in the experiment with OVCAR-4 was > 100 µM (inactive) in each case. Further, the GI50 with SF-268, in the experiment on ACHN and with NCI-H23 was > 100 µM (inactive) in each case.
Consider `COC1(OC)CC2OC1C1N=NN(C(=O)OC(C)(C)C)C21` (centres undefined), for which the GI50 in the experiment with K562 was 36 µM (inactive); in the experiment on SN12C it was > 100 µM (inactive); in the experiment with HCT-15, 43.7 µM; with UACC-62, > 100 µM (inactive); with SK-OV-3, > 100 µM (inactive); with OVCAR-5, > 100 µM (inactive). The GI50 in the experiment on SF-539, with UACC-257, in the experiment with M14, in the experiment on NCI-H460, in the experiment on OVCAR-4 and in the experiment with SF-268 was > 100 µM (inactive) throughout. Also, the GI50 in the experiment on ACHN and in the experiment on NCI-H23 was > 100 µM (inactive) each time.
Take `Clc1ccc(C2N3CCCCC3[C@@H]3c4[nH]c5ccccc5c4CCN23)cc1` (some centres undefined): the GI50 is 38 µM (inactive) with K562; 24.1 µM (inactive) in the experiment with SN12C; 53 µM in the experiment with HCT-15; 50.6 µM (inactive) in the experiment on UACC-62; > 100 µM (inactive) in the experiment on SK-OV-3; 93.3 µM (inactive) in the experiment with SNB-19. For the same compound, the GI50 in the experiment with OVCAR-5 is 56.8 µM (inactive); in the experiment on SF-539, 44.1 µM (inactive); in the experiment on UACC-257 it was 83 µM (inactive); in the experiment on M14, 38.3 µM (inactive); in the experiment on NCI-H460, 61.8 µM (inactive); with OVCAR-4, 56.1 µM (inactive). For the same compound, the results for the GI50 in the experiment on SF-268, in the experiment on ACHN and in the experiment on NCI-H23 were 57.9 µM (inactive), 39.2 µM (inactive) and 42.9 µM (inactive), respectively.
Take `CCCCC(/C=N/NC(=N)N)CC.Cc1cc(O)c(C(C)C)cc1S(=O)(=O)O`: the GI50 in the experiment with K562 is 26.5 µM (inactive); in the experiment with SN12C, 97.5 µM (inactive); in the experiment on HCT-15, 85.7 µM; with UACC-62, 84.1 µM (inactive); in the experiment on SK-OV-3, 59.8 µM (inactive); with SNB-19, 60 µM (inactive). Moreover, the GI50 in the experiment on SR is 21.9 µM (inactive); in the experiment with SF-539, 87.5 µM (inactive); with UACC-257, 41.3 µM (inactive); with M14 it was 36.2 µM (inactive); with NCI-H460, 46.6 µM (inactive); in the experiment on SF-268, > 100 µM (inactive). Also, the GI50 in the experiment on ACHN was 56.6 µM (inactive); in the experiment with NCI-H23, 35 µM (inactive).
